Entries after “also recorded” stand apart in the source; their conditions may differ. Like-named read-outs stand apart in the source and are kept apart here.
Columns and labels:
[1] = Phase IIA clinical trial (Part C): pharmacokinetics in patients; type: in vivo; settings: both sexes, human, plasma; for AUC(0-inf): read-out: AUC0-infinity (Mean ± SD, h · ng/mL); for Cmax: read-out: Cmax (Mean ± SD, ng/mL); for half-life: read-out: T1/2 (median, hr) (converted); for Tmax: read-out: Tmax (median, hr)
Procedure: (§1) • Collect blood (3 mL recommended) onto wet ice (K2EDTA tubes) • Immediately cool blood on crushed wet ice for maximum of 30 minutes • Harvest plasma as quickly as possible using refrigerated centrifuge by centrifuging at 2000 g for 10 minutes at 4° C. • Keep plasma on wet ice and immediately stabilise with 1:1 (v/v) addition of Water: Orthophosphoric Acid (100:2 v/v) prepared using ≥85% orthophosphoric acid and deionised water (e.g. 750 μL plasma+750 μL stabiliser). • Mix sample thoroughly. • Keep the stabilised plasma on wet ice during subsequent steps. • Divide the stabilised plasma into 5×250 μL aliquots in plastic cryotubes. • Store aliquots at nominal −70° C./−80° C. promptly.
(§2) • 1. Thaw frozen calibration standards, QC samples, blank matrix and study samples on wet ice. • 2. Vortex-mix all samples thoroughly. • 3. On wet ice aliquot 150 μL of calibration standards, QC samples, study samples, and blanks into a 2 mL 96-well plate. For the reagent blank add the same volume of Water. • 4. On wet ice add 25 μL of Methanol:Water (50:50) to wells containing blanks and the same volume of ISTD intermediate solution to all other wells. • 5. On wet ice add 125 μL of Water to each well. Cap plate and vortex-mix (˜5 minutes, 1000 rpm). • 6. Centrifuge plate (˜3000 g, 3 minutes, room temperature). • 7. Condition SPE plate (Waters Oasis HLB pElution) with 250 μL Methanol. • 8. Condition SPE plate with 250 μL of Water. • 9. Load 250 μL of the sample onto the SPE plate (aspirate from the rim of the cone to avoid any debris collected at the bottom of the well). Pass through using minimum pressure. • 10. Wash SPE plate with 250 μL of Water. • 11. Wash SPE plate with 250 μL of Methanol:Water (5:95). Briefly increase pressure for one minute to ensure sorbent is partially dried. • 12. Elute from SPE plate into a 1.2 mL 96-well plate using 30 μL of Methanol. Stand for one minute then pass through using absolute minimum pressure. • 13. Elute again with another 30 μL of Methanol, collecting into the same plate. Briefly increase pressure for one minute to complete the elution. • 14. Add 125 μL of Ammonium Formate 10 mM (aq):Formic Acid (100:0.3) to each well. Cap plate and vortex mix (˜1 minute, ≥1200 rpm). • 15. Store plate refrigerated prior to analysis.
(§3) For each subject, the study consisted of three study periods during which subjects received either a single dose of NMD670 400 mg, NMD670 1200 mg, or placebo with a 7-day washout period between visits. On these study visits, subjects were asked to refrain from their regular dose of pyridostigmine (if applicable) from 14 h before dosing until after the last pharmacodynamic measurement on Day 1 (see Table 13: Visit and Assessment Schedule). The cross-over design allowed intra-individual comparison of drug effects versus placebo (see FIG. 16). A balanced design was applied to control for first-order carry-over effects.
(§4) Part C was a double-blinded, placebo-controlled, three-way cross-over comparison of two single oral doses of NMD670 in men and women with stable symptomatic myasthenia gravis. 12 patients were enrolled. For each subject, the study consisted of three study periods during which subjects received either a single dose of NMD670 or placebo. On these study visits, subjects were asked to refrain from their regular dose of pyridostigmine (if applicable) for 14 hours before dosing. Single doses were administered in randomized order (400 mg free acid, 1200 mg free acid, or placebo p.o.), with a 7-day washout period between visits (FIG. 16). NMD670/placebo was administered with 240 ml of still water.

Tablet dissolution = type: physicochemical; settings: after a maximum of 60 minutes; USP2 paddles 75 RPM, 900 ml dissolution media pH 6.8, 37° C.
Procedure: Tablet dissolution was determined as follows.
Dissolution Media pH 6.8 was prepared by dissolving 27.3 g Na2HPO4·2H2O and 4.9 g Citric Acid in 1 L Milli-Q water. The pH was measured and adjusted if necessary to pH 6.8.
900 mL of dissolution media pH 6.8 was accurately transferred into each dissolution vessel. The apparatus was assembled, and the dissolution media was heated to 37° C.±0.5° C. The T=0 point was extracted from each vessel prior to dropping the tablets into the dissolution vessels. One tablet was gently dropped into each dissolution vessel, and rotation of the paddle was immediately started. Samples were taken that the sample extraction timepoints and analysed using the HPLC method.

[2] = tested on: patients with myasthenia gravis; test: Phase IIA clinical trial (Part C): hand grip strength (Jamar dynamometer); type: in vivo, human
Procedure: as §3, §4
Hand grip was evaluated with a Jamar hand grip dynamometer. An analysis of hand grip strength, an item of QMG score and therefore not an independent variable for the total score, was also performed (table 18).

[3] = tested on: patients with myasthenia gravis; test: Phase IIA clinical trial (Part C): repetitive nerve stimulation (CMAP decrement, nasalis muscle); type: in vivo, human; settings: for RNS decrement responders / Patients with RNS decrement at baseline who recovered (less than 5% decrement): 3- and 5-hour measurements; for RNS decrement responders: placebo 0%
Procedure: as §3, §4
RNS uses trains of 10 supramaximal electrical stimuli at 3 and 5 Hz using a Medelec Synergy 11.0. The optimal stimulation site on the skin is identified using inframaximal stimuli, after which the limit of supramaximal intensity is established. The working intensity is about 130% of that threshold. RNS is performed on the facial nerve/nasalis muscle combination. Techniques have been described previously (Niks et al., Muscle & Nerve, 2003, 28(2):236-238; Ruys-Van Oeyen et al., Muscle & Nerve, 2002, 26(2):279-282; Schumm et al., Muscle & Nerve, 1984, 7(2):147-151).
Compound Muscle Action Potentials (CMAPs) were recorded from the nasalis muscle in response to nerve stimulation. Decrement refers to decline in CMAP amplitude during repeated stimulation and indicates neuromuscular transmission failure.

[4] = Phase I clinical trial Part A: pharmacokinetics; type: in vivo; settings: human; for half-life: read-out: T1/2 (mean ± SD, hr) (converted)
Procedure: as §1, §2
Subjects received 800 mg NMD670.

SMILES: C[C@H](Oc1ccc(Br)cc1-c1ccon1)C(=O)O [NMD670, (2S)-2-[4-bromo-2-(1,2-oxazol-3-yl)phenoxy]propanoic acid]
- AUC(0-inf) ([1]; 400 mg single oral dose): 93.7 µg·h/mL
- Cmax ([1]; 400 mg single oral dose): 21700 ng/mL
- half-life ([1]; 400 mg single oral dose): 5.43 h
- Tmax ([1]; 400 mg single oral dose): 2 h
- AUC(0-inf) ([1]; 1200 mg single oral dose): 378 µg·h/mL
- Cmax ([1]; 1200 mg single oral dose): 76700 ng/mL
- half-life ([1]; 1200 mg single oral dose): 5.06 h
- Tmax ([1]; 1200 mg single oral dose): 2 h
- NMD670 released from the tablets (Tablet dissolution): Not less than 80%
- Right-hand grip strength, CFB over placebo, Arithmetic mean ([2]; 400 mg versus placebo, 3-hour): 2.4 kg
- Right-hand grip strength, CFB over placebo, LSM ([2]; 400 mg versus placebo, 3-hour, p = 0.05): 2.4 kg
- Right-hand grip strength, CFB over placebo, Arithmetic mean ([2]; 400 mg versus placebo, 5-hour): 0.4 kg
- Right-hand grip strength, CFB over placebo, LSM ([2]; 400 mg versus placebo, 5-hour, p = 0.76): 0.4 kg
- Right-hand grip strength, CFB over placebo, LSM ([2]; 400 mg versus placebo, Overall, p = 0.19): 1.4 kg
- Right-hand grip strength, CFB over placebo, Arithmetic mean ([2]; 1200 mg versus placebo, 3-hour): 2.9 kg
- Right-hand grip strength, CFB over placebo, LSM ([2]; 1200 mg versus placebo, 3-hour, p = 0.02): 2.9 kg
- Right-hand grip strength, CFB over placebo, Arithmetic mean ([2]; 1200 mg versus placebo, 5-hour): 2.8 kg
- Right-hand grip strength, CFB over placebo, LSM ([2]; 1200 mg versus placebo, 5-hour, p = 0.03): 2.8 kg
- Right-hand grip strength, CFB over placebo, LSM ([2]; 1200 mg versus placebo, Overall, p = 0.01): 2.8 kg
- Change from baseline over placebo in hand grip strength, left and right hand ([2]; both doses (400 mg, 1200 mg), statistically significant for the right hand): improved; also recorded: numerically positive
- Treatment effect on CMAP decrement (continuous measurements) ([3]; 400 mg and 1200 mg single doses, nasalis muscle): No significant treatment effects and no trends of dose-dependent effects
- RNS decrement responders ([3]; 400 mg arm): 83%
- Patients with RNS decrement at baseline who recovered (less than 5% decrement) ([3]; 400 mg arm, of 6 subjects with decrement at baseline): 5 subjects
- RNS decrement responders ([3]; 1200 mg arm): 33%
- Patients with RNS decrement at baseline who recovered (less than 5% decrement) ([3]; 1200 mg arm, of 3 subjects with decrement at baseline): 1 subjects
- AUC(0-inf) ([4]; female, plasma, po, 800 mg, 800 mg (female), single oral dose, read-out: AUC0-infinity (Mean ± SD, h · ng/mL)): 256 ± 56.2 µg·h/mL
- half-life ([4]; female, plasma, po, 800 mg, 800 mg (female), single oral dose): 5.55 ± 0.55 h
- Linearity of PK parameters ([4]; phase 1 FIH study): approximately linear and predictable
- half-life ([4]; male, plasma, po, 800 mg, 800 mg fasted (male), single oral dose): 5.39 ± 0.82 h
- half-life ([4]; male, plasma, po, 800 mg, 800 mg fed (male), single oral dose): 5.02 ± 1.04 h
